The text below walks through data of ChEMBL document CHEMBL1131695, “Design and synthesis of 6-(6-D-ribitylamino-2,4-dihydroxypyrimidin-5-yl)-1-hexyl phosphonic acid, a potent inhibitor of lumazine synthase” (Bioorg Med Chem Lett, 1999).

A short description of this experiment: Inhibitory activity against lumazine synthase beta-60 capsids from Bacillus subtilis.
`O=P(O)(O)CCCCCCc1c(O)nc(O)nc1NC[C@H](O)[C@H](O)[C@H](O)CO`: the affinity, expressed as Ki, was 109 µM.
`O=C(Nc1c(O)nc(O)nc1NC[C@H](O)[C@H](O)[C@H](O)CO)c1ccc(S(=O)(=O)O)cc1` registered a Ki of 360 µM.
Then `O=C(Nc1c(O)nc(O)nc1NC[C@H](O)[C@H](O)[C@H](O)CO)c1ccc(S(=O)(=O)F)cc1`, with 200 µM; and `O=C(O)CCCC(=O)Nc1c(O)nc(O)nc1NC[C@H](O)[C@H](O)[C@H](O)CO`, with 430 µM.
For the molecule `O=c1[nH]c(=O)c2nnn(C[C@H](O)[C@H](O)[C@H](O)CO)c2[nH]1`, the Ki was 330 µM.
With `O=c1[nH]c(=O)c2ncn(C[C@H](O)[C@H](O)[C@H](O)CO)c2[nH]1` the figure was 470 µM.
